Experimental findings from PubChem BioAssay AID1996 are described below.

Converted amounts (≈) assume the structure as drawn.

For the data set the following is noted: buffer; pH 7.4; 200.0 µM.
Consider `Cc1ccc(S(=O)(=O)C2(C(=O)NC3CCCCC3C)CC2)cc1` (stereo not drawn), for which the solubility (kinetic) was found to be 37.3 µg/mL (≈ 111 µM).
The figure for `c1ccc(-c2nccc(-c3ccc4c(c3)OCO4)n2)cc1` is less than 0.3 µg/mL.
As for `CCOC(=O)C1=C(c2ccccc2)NC(=O)NC1c1ccsc1` (stereo not drawn), the solubility (kinetic) came out at 43.9 µg/mL (≈ 134 µM).
With `Cc1ccc(NCc2ccco2)cc1C.O=C(O)C(=O)O` the figure was 4.7 µg/mL; with `O=C(Cc1ccccc1)NCC(=O)OCC(=O)c1ccc(F)cc1`, more than 49.4 µg/mL.
The figure for `Cc1cccc(NC(=O)CCS(=O)(=O)c2ccccc2)c1` is more than 45.5 µg/mL.
The figure for `O=C(CCCn1cc([N+](=O)[O-])cn1)N1CCCCC1` is more than 39.9 µg/mL; for `CCc1sc(C(=O)Nc2cccnc2)cc1Br` it is 3.9 µg/mL (≈ 12.5 µM).
`COc1ccc(CNC(=O)COc2cccnc2[N+](=O)[O-])cc1` yielded a solubility (kinetic) of more than 47.6 µg/mL.
As to `CCOC(=O)CNC(=O)c1cnc(Nc2ccccc2OC)c2ccccc12`, the kinetic solubility stood at 5.4 µg/mL (≈ 14.2 µM).
As for `CN1CCN(C(=O)C2CCN(S(=O)(=O)c3ccc(F)cc3)CC2)CC1`, the solubility (kinetic) amounted to 38.5 µg/mL (≈ 104 µM).
With `N#C/C(=C(/O)c1cccs1)c1nc2ccccc2[nH]1` the figure was 1.2 µg/mL (≈ 4.49 µM); with `O=S(=O)(Nc1ccccc1O)c1ccc(Cl)nc1`, 35.6 µg/mL (≈ 125 µM); with `CC(=O)Cn1cnc2c(sc3nc(C)cc(C)c32)c1=O`, 7.2 µg/mL (≈ 25.1 µM).
The figure for `S=C(CN1CCCC1=S)NCCc1ccccc1` is more than 41.8 µg/mL; for `O=C(N/N=C/c1ccc2nccnc2c1)c1ccncc1` it is more than 41.6 µg/mL.
In the case of `COc1ccccc1CNC(=O)Cc1c[nH]c2ccccc12`, the kinetic solubility was more than 44.2 µg/mL.
The figure for `NC(=O)C1(C(N)=O)OC1c1ccc(Cl)c(Cl)c1` (stereo not drawn) is more than 41.3 µg/mL; for `Cc1cc(F)c(F)c(C(=O)N2CCCCC2C)c1Cl` (stereo not drawn) it is 34.6 µg/mL (≈ 120 µM); for `CC(C)S(=O)(=O)c1csc(NC(=O)Nc2ccc(Cl)cc2)c1Cl` it is less than 0.4 µg/mL.
Regarding `CCOc1ccc(NC(=O)NCc2ccc3c(c2)OCO3)cc1`, the solubility (kinetic) was determined as 1.8 µg/mL (≈ 5.73 µM).
With `COC(=O)CSc1[nH]c2ccc(F)cc2c1[N+](=O)[O-]` the figure was 41.8 µg/mL (≈ 147 µM); with `CC1CN(c2nc3ccccc3nc2NS(=O)(=O)c2ccccc2)CC(C)O1` (stereo not drawn), more than 59.8 µg/mL.
The figure for `CCCOc1ccc(C2=CSC3=NCCN23)cc1[N+](=O)[O-]` is more than 45.8 µg/mL.
Take `O=C(O)C1CCC(=O)N(C2CCCCC2)C1c1ccccc1Cl` (stereo not drawn): the solubility (kinetic) is more than 50.4 µg/mL.
`CCN(Cc1nc2ccccc2n1C)c1ccccc1`: the kinetic solubility is 30.7 µg/mL (≈ 116 µM).
With `CCN(C(=O)c1ccc(=O)n(C)n1)c1c(N)n(Cc2ccccc2)c(=O)[nH]c1=O` the figure was more than 59.5 µg/mL.
Compound `CCc1cccc(NC(=O)C2CCN(c3ncnc4sc(C)c(C)c34)CC2)c1` returned a solubility (kinetic) of 2.7 µg/mL (≈ 6.84 µM).
The compound `CSCc1ccc(C(=O)OCc2nc3ccccc3s2)o1` displayed a kinetic solubility of 13.3 µg/mL (≈ 41.6 µM).
With `CCOCCCNC(=O)/C(C#N)=C/c1ccc(C(=O)OC)cc1`, the solubility (kinetic) was found to be 19.1 µg/mL (≈ 60.4 µM).
Compound `COc1cc(Nc2ncnc(N)n2)cc(OC)c1` yielded a solubility (kinetic) of more than 37.1 µg/mL.
Consider `CC(=O)c1ccc(N2CCN(C3CCC(C(C)(C)C)CC3)CC2)cc1` (stereo not drawn), for which the kinetic solubility came out at 0.8 µg/mL (≈ 2.34 µM).
With `Cc1cc(Cl)c2cc3ccccc3cc2n1` the figure was 0.9 µg/mL (≈ 3.95 µM); with `CN1CCN(CCC(=O)Nc2ccccc2)CC1`, more than 37.1 µg/mL.
With `COc1ccc(NC(=O)CS(=O)(=O)c2ccccc2)cc1` the figure was more than 45.8 µg/mL; with `CC(C)[C@H](NC(=O)c1ccccc1)C(=O)OCC(=O)Nc1ccc(S(=O)(=O)N2CCOCC2)cc1`, 3 µg/mL (≈ 5.96 µM); with `N/C(CS(=O)(=O)c1ccc(F)cc1)=N\O`, more than 34.8 µg/mL.
The figure for `OC(CNc1ncnc2sccc12)c1ccccc1` (stereo not drawn) is more than 40.7 µg/mL.
As to `O=C(Nc1ccc2ccccc2c1)c1ccc(Br)o1`, the solubility (kinetic) was 4.9 µg/mL (≈ 15.5 µM).
With `CC(C)(Oc1ccc(CCNC(=O)c2ccc(Cl)cc2)cc1)C(=O)O` the figure was more than 54.3 µg/mL; with `O=C(O)Cn1cnc2c(oc3ccccc32)c1=O`, more than 36.6 µg/mL.
With `CC(=O)n1c(-c2ccccc2)c(-c2ccccc2)n(C)c1=O` the figure was more than 43.9 µg/mL.
With `O=C(CNCc1ccc(F)cc1)Nc1ccccc1[N+](=O)[O-]` the figure was 32.7 µg/mL (≈ 108 µM).
In the case of `Cc1c(C(=O)O)sc2c1c(=O)n(Cc1ccccc1)c(=O)n2C`, the kinetic solubility is more than 49.6 µg/mL.
The figure for `Cn1c(=O)c2sccc2n(Cc2ccccc2)c1=O` is more than 40.8 µg/mL; for `Cc1cc(C(=O)NC2CCCN(Cc3ccc(Cl)cc3)C2)no1` (stereo not drawn) it is 39.7 µg/mL (≈ 119 µM).
With `O=C(Nc1ccc(C(=O)O)cc1)/C(=C\c1ccco1)NC(=O)c1ccco1` the figure was more than 54.9 µg/mL.
With `Cc1ccc(C2=NOC3(CC(=O)N(c4ccc(C)cc4)C3=O)C2)cc1` (stereo not drawn) the figure was 12.6 µg/mL (≈ 37.7 µM); with `COc1ccc(Cl)cc1C(=O)Nc1ccc2c(c1)OCCO2`, 0.9 µg/mL (≈ 2.81 µM).
For `CC(=O)CN1C(=O)NC(c2ccccc2)(c2ccccc2)C1=O`, the kinetic solubility was 33.9 µg/mL (≈ 110 µM).
Take `COCCSc1nnc(NC(=O)c2ccco2)s1`: the solubility (kinetic) is more than 42.8 µg/mL.
With `Cc1ccc(S(=O)(=O)N2CCC(C(N)=O)CC2)cc1[N+](=O)[O-]` the figure was more than 49.1 µg/mL; with `Cc1cccc(C(=O)Nc2cccnc2Cl)c1`, more than 37 µg/mL; with `COC(=O)c1cc(C(=O)OC)n(Cc2ccc(F)cc2)c1C`, 10.6 µg/mL (≈ 34.7 µM).
Take `O=C(c1c(Cl)cccc1Cl)N1CCN(c2cccc3[nH]ccc23)CC1`: the solubility (kinetic) came to 4.8 µg/mL (≈ 12.8 µM).
The figure for `Cc1nc2ccc(C(=O)Nc3ccccc3Cl)cc2s1` is 14.2 µg/mL (≈ 46.9 µM).
With `Cc1cc(C(=O)N2CCN(c3ncccn3)CC2)nn1C`, the kinetic solubility is more than 43 µg/mL.
With `Cc1cccc(NC(=S)NC2CCCC2)c1C` the figure was 34.1 µg/mL (≈ 137 µM).
`Cc1cccc(N(Cc2ccccc2)C(=O)c2ccccc2F)c1` displayed a solubility (kinetic) of 11.5 µg/mL (≈ 36 µM).
For the compound `OCCN(CCO)CC(O)COc1ccc(Br)cc1` (stereo not drawn), the solubility (kinetic) is 6.7 µg/mL (≈ 20 µM).
With `NS(=O)(=O)c1cccc(NC(=O)COC(=O)CC2Sc3ccccc3NC2=O)c1` (stereo not drawn) the figure was 32.5 µg/mL (≈ 74.6 µM); with `COC(=O)C1CCN(C(=O)COC(=O)/C=C/c2ccc(O)c(OC)c2)CC1`, more than 56.6 µg/mL.
The figure for `CC(C)[C@H](NC(=O)NC1CCN(Cc2ccccc2)CC1)C(=O)O` is 19.8 µg/mL (≈ 59.4 µM).
Turning to `O=c1[nH]c2cccnc2n1-c1cccc([N+](=O)[O-])c1`, the solubility (kinetic) was 17 µg/mL (≈ 66.3 µM).
The figure for `CC(=O)NC1=NN(C(C)=O)C(C)(c2cccnc2)S1` (stereo not drawn) is more than 41.7 µg/mL; for `CCCc1cc(C(=O)Nc2ccc(Cl)cn2)cs1` it is 0.7 µg/mL (≈ 2.49 µM).
With `CC1(C)CC(=O)C2=C(C1)NC(=S)C(C#N)C21CCCCC1` (stereo not drawn) the figure was more than 45.4 µg/mL.
With `O=C(CCCc1ccccc1)NCCCc1ccccc1` the figure was 33 µg/mL (≈ 117 µM).
For `COc1cc(C(C)=O)ccc1OCC(=O)N1CCc2ccccc2C1`, the solubility (kinetic) was determined as 43.9 µg/mL (≈ 129 µM).
With `Cn1c(NCCO)nc2c1c(=O)n(Cc1ccc(F)cc1)c(=O)n2C` the figure was 50.6 µg/mL (≈ 146 µM); with `N#Cc1ccc(-c2ccc(OCC(O)CN3CCCCC3)cc2)cc1` (stereo not drawn), 42.4 µg/mL (≈ 126 µM).
With `O=C(NCCc1csc(-c2cccc(F)c2)n1)c1ccco1` the figure was more than 47.5 µg/mL; with `CCc1ccc(NC(=S)N2CCCCCCC2)cc1`, 35.1 µg/mL (≈ 127 µM); with `CCC(=O)NC1(C(F)(F)F)C(=O)Nc2c1c(=O)[nH]c(=O)n2CC(C)C` (stereo not drawn), 54 µg/mL (≈ 149 µM).
`NC(=O)c1ccsc1NC(=O)CSc1nnc2ccccn12` came in with a solubility (kinetic) of more than 50 µg/mL.
For the compound `O/C=c1\ccc2cccc3nc(C(F)(F)F)nc1c23`, the kinetic solubility was found to be 5.5 µg/mL (≈ 20.8 µM).
The figure for `O=C(Nc1cc(Cl)ccc1Cl)c1cc(-c2ccco2)on1` is 0.7 µg/mL (≈ 2.17 µM); for `COc1ccc(C2CC(=O)C(C=NCCO)=C(O)C2)cc1` (stereo not drawn) it is 38 µg/mL (≈ 131 µM).
The figure for `COc1cc([N+](=O)[O-])ccc1NC(=S)NC(=O)CC(C)(C)C` is 0.3 µg/mL (≈ 0.922 µM); for `CCOC(=O)CCNC(=O)N1CCCC(C(=O)c2ccccc2SC)C1` (stereo not drawn) it is more than 56.8 µg/mL.
With `Cc1noc2ncnc(SCc3ccc(C(F)(F)F)cc3)c12` the figure was 1.1 µg/mL (≈ 3.38 µM); with `CC1CCc2c(sc(NC(=O)C3=COCCO3)c2C(N)=O)C1` (stereo not drawn), 6.3 µg/mL (≈ 19.5 µM); with `Cn1cccc1C(=O)OCc1ccc(F)cc1`, less than 0.5 µg/mL.
Turning to `CCN(CC)S(=O)(=O)c1ccc(NCc2ccccn2)nc1`, the solubility (kinetic) is more than 48.1 µg/mL.
The figure for `Cc1ccc([N+](=O)[O-])cc1S(=O)(=O)Nc1cccc(S(=O)(=O)NC2=NCCC2)c1` is more than 65.8 µg/mL; for `Cc1cccc(OCCCC(=O)Nc2nccs2)c1C` it is 1.5 µg/mL (≈ 5.17 µM); for `O=C(NCc1nc2ccccc2[nH]1)c1ccccc1F` it is more than 40.4 µg/mL.
Compound `COc1cccc(-n2c(O)c(C=NCCN3CCNCC3)c(=O)[nH]c2=S)c1` registered a kinetic solubility of more than 58.4 µg/mL.
The figure for `CC(C)CN1C(=O)c2ccc(NC(=O)C3CC3)cc2C1=O` is 0.5 µg/mL (≈ 1.75 µM).
`Cc1ccc(OCC(=O)N2CC(C)OC(C)C2)c([N+](=O)[O-])n1` (stereo not drawn) had a solubility (kinetic) of more than 46.4 µg/mL.
The figure for `Cc1ccc(NC(=O)C2CC(=O)N(C(C)C)C2)cc1Cl` (stereo not drawn) is more than 44.2 µg/mL; for `O=C(Nc1cccc(S(=O)(=O)N2CCCCC2)c1)C1CC1` it is more than 46.3 µg/mL.
The compound `CC1CCc2sc(C(=O)NCc3ccccn3)cc2C1` (stereo not drawn) returned a kinetic solubility of 13 µg/mL (≈ 45.4 µM).
The figure for `O=C(NC(=O)C(F)(F)F)Nc1ccc(S(=O)(=O)Nc2nccs2)cc1` is more than 59.2 µg/mL; for `CCOc1ccc2nc(N/C(N)=N/S(C)(=O)=O)nc(C)c2c1` it is 2.3 µg/mL (≈ 7.11 µM); for `CSc1ccc(CNCC2CCCO2)cc1.Cl` (stereo not drawn) it is 37.1 µg/mL.
Consider `C[C@@H](NC(=O)[C@@H]1Cc2ccccc2CN1)C(=O)NC1CCCC1`, for which the kinetic solubility was more than 47.3 µg/mL.
On to `COc1ccc2cc(C(=O)NCc3ccccc3)[nH]c2c1.Cl`, for which the kinetic solubility came out at 1 µg/mL.
With `Cc1cnc(C(=O)OC(C)C(=O)NCc2ccccc2)cn1` (stereo not drawn) the figure was more than 44.9 µg/mL; with `CCCCCCn1cc(C(=O)OCC)c(=O)c2cc(F)c(F)cc21`, 43.6 µg/mL (≈ 129 µM); with `O=C(c1cc(Br)c[nH]1)N1CCCCC1`, more than 38.6 µg/mL.
The compound `Cc1ccc(C(=O)NCCNC(=O)COc2ccc(C)c(C)c2)cn1` displayed a kinetic solubility of 49.2 µg/mL (≈ 144 µM).
The figure for `Brc1cccc2sc(N3CCCC3)nc12` is 5.2 µg/mL (≈ 18.4 µM).
